From patent publication US9169254B2, “Spiroimidazolone derivative” (Chugai Seiyaku Kabushiki Kaisha, priority 2009, dated 2015) come the findings set out here.

The target in one assay is T1, human PTH1 receptor (Homo sapiens, UniProt Q03431).
T1 sequence (Q03431 27-593): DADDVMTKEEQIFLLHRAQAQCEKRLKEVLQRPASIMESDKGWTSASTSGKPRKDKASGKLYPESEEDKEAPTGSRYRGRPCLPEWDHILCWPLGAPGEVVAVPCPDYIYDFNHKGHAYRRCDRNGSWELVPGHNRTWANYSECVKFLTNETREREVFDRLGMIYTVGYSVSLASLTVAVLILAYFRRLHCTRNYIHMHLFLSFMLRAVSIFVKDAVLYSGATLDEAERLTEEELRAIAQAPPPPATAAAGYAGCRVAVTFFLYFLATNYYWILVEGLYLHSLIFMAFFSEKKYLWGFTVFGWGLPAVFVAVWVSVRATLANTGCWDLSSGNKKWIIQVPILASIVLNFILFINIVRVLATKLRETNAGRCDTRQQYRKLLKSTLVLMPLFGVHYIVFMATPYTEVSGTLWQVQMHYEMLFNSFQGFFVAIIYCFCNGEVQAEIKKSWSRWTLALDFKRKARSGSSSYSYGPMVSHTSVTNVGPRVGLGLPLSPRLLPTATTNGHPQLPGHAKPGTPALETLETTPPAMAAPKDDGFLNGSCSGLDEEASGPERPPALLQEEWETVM
Put plainly: In vitro cAMP signal activity in HKRK-B7 cells (LLC-PK1 cells overexpressing the human PTH1 receptor). The class given is cell-based. The settings on record: 0.1 µM.
`Cc1cc(C(=O)N(C)C)ccc1CCS(=O)(=O)N1CCC2(CC1)N=C(Nc1ccc(C(F)(F)F)cc1)NC2=O` [Compound 1396, 3,N,N-Trimethyl-4-{2-[4-oxo-2-(4-trifluoromethyl-phenylamino)-1,3,8-triaza-spiro[4.5]dec-1-ene-8-sulfonyl]-ethyl}-benzamide]: the “cAMP production activity (%)” value was determined as 133%.

The same assay, now with this note: HKRK-B7 cells; compound at 1×10^−3 M; […]; 0.1 µM.
For `COCCOC(=O)N1CCCC(C2=NC3(CCN(S(=O)(=O)c4cccc(Cl)c4)CC3)C(=O)N2)C1` (stereo not shown) [Compound 460, 3-[8-(3-Chloro-benzenesulfonyl)-4-oxo-1,3,8-triaza-spiro[4.5]dec-1-en-2-yl]-piperidine-1-carboxylic acid 2-methoxy-ethyl ester], the “cAMP production activity (%)” value is 18%.

The assay is the same for the next values; noted with them: HKRK-B7 cells; compound at 1×10^−3 M; cAMP produced as percentage of that produced by hPTH(1-34) at 100 nM.
For the compound `Cc1cc(N2C(=O)CN(C)C2=O)ccc1/C=C/S(=O)(=O)N1CCC2(CC1)N=C(C1CCC(C)CC1)NC2=O` (stereo not shown) [Compound 505, 1-methyl-3-(3-methyl-4-{(E)-2-[2-(4-methyl-cyclohexyl)-4-oxo-1,3,8-triaza-spiro[4.5]dec-1-ene-8-sulfonyl]-vinyl}-phenyl)-imidazolidine-2,4-dione], the “cAMP production activity (%)” value is listed as 61%.
Still for that read-out and setting: the figure for `[2H]C([2H])([2H])C([2H])([2H])C1=CC[C@H](C2=NC3(CCN([S@TB18](=O)(=O)/C=C/c4c(C)cc(N(C)C(N)=O)cc4C)CC3)C(=O)N2)CC1` [Compound 1129, 1-(4-{(E)-2-[2-(4-[1,1,2,2,2-^2H5]ethyl-cyclohex-3-enyl)-4-oxo-1,3,8-triaza-spiro[4.5]dec-1-ene-8-sulfonyl]-vinyl}-3,5-dimethyl-phenyl)-1-methyl-urea] is 102%; for `CC(=O)N(C)c1ccc(C)c(CCS(=O)(=O)N2CCC3(CC2)N=C(c2cccc(OC(F)(F)F)c2)NC3=O)c1` [Compound 265, N-methyl-N-(4-methyl-3-{2-[4-oxo-2-(3-trifluoromethoxy-phenyl)-1,3,8-triaza-spiro[4.5]dec-1-ene-8-sulfonyl]-ethyl}-phenyl)-acetamide] it is 55%; for `O=C(/C=C/c1ccccc1)N1CCCC(C2=NC3(CCN(S(=O)(=O)CCc4cccc5ccccc45)CC3)C(=O)N2)C1` (stereo not shown) [Compound 441, 8-(2-Naphthalen-1-yl-ethanesulfonyl)-2-{1-[(E)-(3-phenyl-acryloyl)]-piperidin-3-yl}-1,3,8-triaza-spiro[4.5]dec-1-en-4-one] it is 24%.
As to `O=C(CNc1ccc(/C=C/S(=O)(=O)N2CCC3(CC2)N=C(C2CCCCC2)NC3=O)c(C(F)(F)F)c1)NCCO` [Compound 494, 2-{4-[(E)-2-(2-cyclohexyl-4-oxo-1,3,8-triaza-spiro[4.5]dec-1-ene-8-sulfonyl)-vinyl]-3-trifluoromethyl-phenylamino}-N-(2-hydroxy-ethyl)-acetamide], the “cAMP production activity (%)” value was determined as 66%.
As for `O=C1NC(C2CCCCC2)=NC12CCN(S(=O)(=O)CCC/C=C/c1cccc3[nH]ccc13)CC2` [Compound 252, 2-Cyclohexyl-8-[(E)-5-(1H-indol-4-yl)-pent-4-ene-1-sulfonyl]-1,3,8-triaza-spiro[4.5]dec-1-en-4-one], the “cAMP production activity (%)” value amounted to 28%.
For the compound `Cc1cc(C(=O)N2CCS(=O)(=O)CC2)ccc1CCS(=O)(=O)N1CCC2(CC1)N=C(C1CCCCC1)NC2=O` [Compound 841, 2-cyclohexyl-8-{2-[4-(1,1-dioxo-1λ^6-thiomorpholine-4-carbonyl)-2-methyl-phenyl]-ethanesulfonyl}-1,3,8-triaza-spiro[4.5]dec-1-en-4-one], the “cAMP production activity (%)” value amounted to 45%.
With `Cc1cc2ccc1CCS(=O)(=O)N1CCC3(CC1)N=C(NC3=O)c1cc(cc(C(F)(F)F)c1)OCCCCCO[C@H]1CN(C[C@@H]1O)C2=O` [Compound 1425], the “cAMP production activity (%)” value was determined as 32%.
With `Cc1cc(C(=O)N2CCC(C)(O)CC2)cc(C)c1/C=C/S(=O)(=O)N1CCC2(CC1)N=C(C1CCC(CCC(F)(F)F)CC1)NC2=O` (stereo not shown) [Compound 989, 8-{(E)-2-[4-(4-Hydroxy-4-methyl-piperidine-1-carbonyl)-2,6-dimethyl-phenyl]-ethenesulfonyl}-2-[4-(3,3,3-trifluoro-propyl)-cyclohexyl]-1,3,8-triaza-spiro[4.5]dec-1-en-4-one], the “cAMP production activity (%)” value is listed as 86%.
With `CC(=O)Nc1ccc(CCS(=O)(=O)N2CCC3(CC2)N=C(C24CC5CC(CC(C5)C2)C4)NC3=O)c(C)c1` [Compound 918, N-{4-[2-(2-adamantan-1-yl-4-oxo-1,3,8-triaza-spiro[4.5]dec-1-ene-8-sulfonyl)-ethyl]-3-methyl-phenyl}-acetamide], the “cAMP production activity (%)” value is 63%.
Turning to `Cc1cc(N(C2CCNCC2)S(C)(=O)=O)cc(C)c1/C=C/S(=O)(=O)N1CCC2(CC1)N=C(c1cccc(OC(F)(F)F)c1)NC2=O` [Compound 689, N-(3,5-Dimethyl-4-{(E)-2-[4-oxo-2-(3-trifluoromethoxy-phenyl)-1,3,8-triaza-spiro[4.5]dec-1-ene-8-sulfonyl]-vinyl}-phenyl)-N-piperidin-4-yl-methanesulfonamide], the “cAMP production activity (%)” value is listed as 27%.
`Cc1cc(C(=O)N2CCC(C)(O)CC2)cc(C)c1/C=C/[S@TB4](=O)(=O)N1CCC2(CC1)N=C(c1ccc(F)c(OC(F)(F)F)c1)NC2=O` [Compound 1099, 2-(4-fluoro-3-trifluoromethoxy-phenyl)-8-{(E)-2-[4-(4-hydroxy-4-methyl-piperidine-1-carbonyl)-2,6-dimethyl-phenyl]-ethenesulfonyl}-1,3,8-triaza-spiro[4.5]dec-1-en-4-one]: the “cAMP production activity (%)” value is recorded as 91%.
The same measure, in the same setting: then `CC(=O)Nc1ccc(CCS(=O)(=O)N2CCC3(CC2)N=C([C@H]2CC[C@@H](CCF)CC2)NC3=O)c(C)c1` [Compound 1072, N-[4-(2-{2-[4-(2-fluoro-ethyl)-cyclohexyl]-4-oxo-1,3,8-triaza-spiro[4.5]dec-1-ene-8-sulfonyl}-ethyl)-3-methyl-phenyl]-acetamide], with 54%; and `Cc1cc(CN2CCCC2=O)cc(C)c1/C=C/S(=O)(=O)N1CCC2(CC1)N=C(C1CCC(CCC(F)(F)F)CC1)NC2=O` (stereo not shown) [Compound 556, 8-{(E)-2-[2,6-dimethyl-4-(2-oxo-pyrrolidin-1-ylmethyl)-phenyl]-ethenesulfonyl}-2-[4-(3,3,3-trifluoro-propyl)-cyclohexyl]-1,3,8-triaza-spiro[4.5]dec-1-en-4-one], with 19%.
Regarding `Cc1cc(N2C(=O)NC(C)(C)C2=O)cc(C)c1/C=C/S(=O)(=O)N1CCC2(CC1)N=C(C1CCC(C)CC1)NC2=O` (stereo not shown) [Compound 507, 3-(3,5-dimethyl-4-{(E)-2-[2-(4-methyl-cyclohexyl)-4-oxo-1,3,8-triaza-spiro[4.5]dec-1-ene-8-sulfonyl]-vinyl}-phenyl)-5,5-dimethyl-imidazolidine-2,4-dione], the “cAMP production activity (%)” value was 43%.
With `COCCCCCCCC1=NC2(CCN(S(=O)(=O)CCc3c(C)cc(N(C)C(N)=O)cc3C)CC2)C(=O)N1` [Compound 1351, 1-(4-{2-[2-(7-methoxy-heptyl)-4-oxo-1,3,8-triaza-spiro[4.5]dec-1-ene-8-sulfonyl]-ethyl}-3,5-dimethyl-phenyl)-1-methyl-urea], the “cAMP production activity (%)” value was 100%.
As to `CCCCCc1ccc(C2=NC3(CCN(S(=O)(=O)/C=C/c4c(C)cc(N(C)C(N)=O)cc4C)CC3)C(=O)N2)cc1` [Compound 1021, 1-(3,5-dimethyl-4-{(E)-2-[4-oxo-2-(4-pentyl-phenyl)-1,3,8-triaza-spiro[4.5]dec-1-ene-8-sulfonyl]-vinyl}-phenyl)-1-methyl-urea], the “cAMP production activity (%)” value is 137%.
